Source: the CombiSolv-Exp solvation set (Vermeire and Green 2021)

Assay: solvent given as SMILES

CC1=CCC23C(C)CCC(C(C)C)C2C13 (stereo not drawn)
Conditions	solvation free energy, 298 K [kJ/mol]
in O	2.34

CCCCC(=O)CC(=O)CCCC
Conditions	solvation free energy, 298 K [kJ/mol]
in O	-17.3

Nc1cnn(-c2ccccc2)c(=O)c1Cl
Conditions	solvation free energy, 298 K [kJ/mol]
in O	-68.7

ClC(Cl)=C(Cl)C(Cl)=C(Cl)Cl
Conditions	solvation free energy, 298 K [kJ/mol]
in O	-1.92

CCOCCOCC
Conditions	solvation free energy, 298 K [kJ/mol]
in O	-14.8

C=C(C)CCC
Conditions	solvation free energy, 298 K [kJ/mol]
in O	6.11

Clc1c(Cl)c(Cl)c2c(c1Cl)Oc1ccccc1O2
Conditions	solvation free energy, 298 K [kJ/mol]
in O	-15.9

CCCCC(=O)CC(C)=O
Conditions	solvation free energy, 298 K [kJ/mol]
in O	-17.9

N#Cc1ccccc1
Conditions	solvation free energy, 298 K [kJ/mol]
in CCCCCCC	-22.3
in CCCCCCCCO	-25.1
in O	-17.2
in [2H]O[2H]	-16

Br
Conditions	solvation free energy, 298 K [kJ/mol]
in CCCC	-5.15
in CCCCCC	-4.98
in CCCCCCCC	-4.64
in CCCCCCCCCC	-4.56

C1CCNC1
Conditions	solvation free energy, 298 K [kJ/mol]
in C1CCCCC1	-17.5
in CCCCCCCCO	-23.2
in O	-22.9

CCO
Conditions	solvation free energy, 298 K [kJ/mol]
in Brc1ccccc1	-13.1
in C1CCCCC1	-9.71
in C1CCOC1	-18.9
in C1COCCO1	-18.2
in C=CCCCCCCC	-9.79
in CC1COC(=O)O1	-17.6
in CC#N	-18.3
in CC(=O)N(C)C	-21.9
in CC(=O)O	-21.8
in CC(=O)c1ccccc1	-16.9
in CC(C)(C)O	-21.1
in CC(C)=O	-19
in CC(C)CC(C)(C)C	-9.87
in CC(C)CCCC(C)CCCC(C)CCCCC(C)CCCC(C)CCCC(C)C	-8.41
in CC(C)CCO	-20.1
in CC(C)CO	-20
in CC(C)O	-20.7
in CC(C)OC(C)C	-15.8
in CC(Cl)Cl	-14.9
in CCC(C)=O	-18.2
in CCCC#N	-17.2
in CCCCC(CC)COC(=O)CCCCC(=O)OCC(CC)CCCC	-14.1
in CCCCCCC	-9.2
in CCCCCCCC	-8.95
in CCCCCCCCC=CCCCCCCCC(=O)OCC(COC(=O)CCCCCCCC=CCCCCCCCC)OC(=O)CCCCCCCC=CCCCCCCCC	-13.5
in CCCCCCCCCC	-9.41
in CCCCCCCCCCCCCCCC	-8.24
in CCCCCCCCCCO	-17.2
in CCCCCCCCCOC(=O)c1ccccc1C(=O)OCCCCCCCCC	-13.6
in CCCCCCCCO	-18.5
in CCCCCO	-19.5
in CCCCCl	-12.8
in CCCCN(C=O)CCCC	-19
in CCCCO	-20.5
in CCCCOCCCC	-13.9
in CCCO	-20.5
in CCCOCCC	-14.4
in CCN(CC)C(C)=O	-21.2
in CCN(CC)CC	-16.8
in CCNC(C)=O	-20.7
in CCNC=O	-20.5
in CCOC(=O)c1ccccc1C(=O)OCC	-14.8
in CCOC(C)=O	-17.3
in CCOCC	-18.5
in CCOCCO	-19.1
in CCOCCOCCOCC	-17.6
in CCOP(=O)(OCC)OCC	-19.9
in CCOc1ccccc1	-14.1
in CN1CCCC1=O	-21.3
in CN1CCCCC1=O	-21.5
in CN1CCN(C)C1=O	-20.6
in CN(C)C=O	-21.3
in CN(C)P(=O)(N(C)C)N(C)C	-25.6
in CNC(C)=O	-20.8
in CNC=O	-20.8
in CO	-22.1
in COC(C)(C)C	-16.5
in COC(C)=O	-17.2
in COCCO	-20
in COP(=O)(OC)OC	-20.8
in COc1ccccc1	-14.7
in CS(C)=O	-21.9
in Cc1ccc(C)cc1	-13.1
in Cc1cccc(C)c1	-12.6
in Cc1cccc(C)n1	-20.4
in Cc1cccc(O)c1	-23.1
in Cc1ccccc1	-13.5
in Cc1ccccn1	-20.8
in ClC(Cl)(Cl)Cl	-12.4
in ClC(Cl)Cl	-16.6
in ClCCl	-15.7
in Clc1ccccc1	-13.3
in FC(F)(F)C(F)(F)C(F)(F)C(F)(F)C(F)(F)C(F)(F)F	-6.49
in Fc1c(F)c(F)c(F)c(F)c1F	-11.7
in Fc1ccccc1	-13.9
in ICI	-11.8
in Ic1ccccc1	-12.7
in NC=O	-20.3
in Nc1ccccc1	-18.3
in O	-21
in O=C1CCCCC1	-18.2
in O=C1CCCO1	-18.6
in O=CN1CCOCC1	-19
in OCC(O)CO	-18.1
in OCCO	-19.7
in OCCOCCO	-19.1
in OCCOCCOCCO	-17.4
in OCc1ccccc1	-20
in S=C=S	-11.3
in [2H]O[2H]	-21.3
in c1ccc2ncccc2c1	-19
in c1ccc(COCc2ccccc2)cc1	-14.1
in c1ccccc1	-13.7
in c1ccncc1	-21.1
